Results reported in US9125414B2, “Pyridine derivatives compounds for controlling invertebrate pests” (BASF SE, priority 2009, dated 2015).

Legend:
Format in all cases: in vivo
[1] = test system: Cowpea Aphid (Aphis craccivora); test: Cowpea aphid, sprayed potted cowpea plants; conditions: population reduction assessed after 24, 72 and 120 hours, read-out: mortality in comparison with untreated controls
Experimental: II.3 Cowpea Aphid (Aphis craccivora)
The active compounds were formulated in 50:50 (vol:vol) acetone:water. The test solution was prepared at the day of use.
Potted cowpea plants colonized with 100-150 aphids of various stages were sprayed after the pest population had been recorded. Population reduction was assessed after 24, 72, and 120 hours.

[2] = test system: Green Peach Aphid (Myzus persicae); test: Green peach aphid through systemic means, artificial diet under membrane; conditions: 72 h, pipetted into aphid diet, 3 days, read-out: mortality in comparison with untreated controls
From the text: II.6 Activity Against Green Peach Aphid (Myzus persicae)
For evaluating control of green peach aphid (Myzus persicae) through systemic means the test unit consisted of 96-well-microtiter plates containing liquid artificial diet under an artificial membrane.
The compounds were formulated using a solution containing 75% v/v water and 25% v/v DMSO. Different concentrations of formulated compounds were pipetted into the aphid diet, using a custom built pipetter, at two replications. After application, 5 to 8 adult aphids were placed on the artificial membrane inside the microtiter plate wells. The aphids were then allowed to suck on the treated aphid diet and incubated at about 23+1° C. and about 50+5% relative humidity for 3 days. Aphid mortality and fecundity was then visually assessed.

[3] = test system: Green Peach Aphid (Myzus persicae, mixed life stages); test: Green peach aphid, method a (leaf dip, pepper plants); conditions: foliar, 120 h, leaves dipped, after 5 days, read-out: mortality in comparison with untreated controls
From the text: II.2 Green Peach Aphid (Myzus persicae, Mixed Life Stages)
The active compounds were formulated in 50:50 (vol:vol) acetone:water and 100 ppm Kinetica™ (from Helena Chemical Co.) surfactant.
Pepper plants in the 2nd leaf-pair stage (variety ‘California Wonder’) were infested with approximately 40 laboratory-reared aphids by placing infested leaf sections on top of the test plants. The leaf sections were removed after 24 hr. The leaves of the intact plants were dipped into gradient solutions of the test compound and allowed to dry. Test plants were maintained under fluorescent light (24 hour photoperiod) at about 25° C. and 20-40% relative humidity. Aphid mortality on the treated plants, relative to mortality on check plants, was determined after 5 days.

[4] = test system: Cotton Aphid (Aphis gossypii, mixed life stages); test: Cotton aphid, method a (cotyledon dip); conditions: 120 h, cotyledons dipped, counts after 5 days, read-out: mortality in comparison with untreated controls
From the text: II.1 Cotton Aphid (Aphis gossypii, Mixed Life Stages)
The active compounds were formulated in 50:50 (vol:vol) acetone: water and 100 ppm Kinetica™ (from Helena Chemical Co.) surfactant.
Cotton plants at the cotyledon stage (one plant per pot) were infested by placing a heavily infested leaf from the main colony on top of each cotyledon. The aphids were allowed to transfer to the host plant overnight, and the leaf used to transfer the aphids was removed. The cotyledons were dipped in the test solution and allowed to dry. After 5 days, mortality counts were made.

[5] = test system: Vetch Aphid (Megoura viciae); test: Vetch aphid, bean leaf disks in microtiterplates; conditions: foliar, 144 h, test solution 2500 mg/L, leaf disks sprayed, 6 days
Experimental: II.4 Vetch Aphid (Megoura viciae)
The active compounds were formulated in 1:3 (vol:vol) DMSO:water with different concentrations of formulated compounds.
Bean leaf disks were placed into microtiterplates filled with […] and 2.5 ppm OPUS™ (from BASF SE, conazole). The leaf disks were sprayed with 2.5 μl of the test solution and 5 to 8 adult aphids were placed into the microtiterplates which were then closed and kept at 23±1° C. and 50±5% relative humidity under fluorescent light for 6 days. Mortality was assessed on the basis of vital, reproduced aphids. Aphid mortality and fecundity was then visually assessed.

**Q.** What does the source list for O=C(Nc1cccnc1)c1conc1C1CC1 [Example 15, 3-Cyclopropyl-isoxazole-4-carboxylic acid pyridin-3-ylamide]?
**A.** mortality at 300 ppm [1]: ≥ 90%; mortality at 2500 ppm [2]: 100%; mortality at 300 ppm [3]: ≥ 90%; mortality at 300 ppm [4]: ≥ 90%; mortality at 2500 µg/mL [5]: ≥ 90%
